Among the data in patent US20230212164A1, “ANNULATED 2-AMINO-3-CYANO THIOPHENES AND DERIVATIVES FOR THE TREATMENT OF CANCER” (BOEHRINGER INGELHEIM INTERNATIONAL GMBH, priority 2020, published 2023) are IC50 and GI50 values, retold here.

Each structure is given as a SMILES string.

In test [1] the target is T1, protein-protein interaction between SOS1 and KRAS G12C (Homo sapiens, UniProt P01116, C118S/C51S/C80L/G12C).
T1 construct: His6 (N)
Nature of the test: KRAS::SOS1 AlphaScreen binding assay. The settings on record: Table 36. As to the method: KRAS::SOS1 AlphaScreen Binding Assay
Assay buffer: • 1×PBS • 0.1% BSA • 0.05% Tween 20
AlphaLISA Glutathione Acceptor Beads and AlphaScreen Streptavidin Donor Beads are mixed in assay buffer at a concentration of 10 μg/mL (final assay concentration) each prior to use and kept at room temperature.
Compounds are diluted to a final start concentration of 100 μM and are tested in duplicate. […] For compound a start concentration of 100 μM, 150 nL of compound solution is transferred per well in 11 concentrations in duplicate with serial 1:5 dilutions.
The assay is run using a fully automated robotic system in a darkened room below 100 Lux. 10 μL of KRAS::SOS1 GDP mix is added into columns 1-24 to the 150 nL of compound solution (final dilution in the assay 1:100, final DMSO concentration 1%).
After 30 minutes incubation time 5 μL of bead mix is added into columns 1-23. Plates are kept at room temperature in a darkened incubator. After further 60 minutes incubation, the signal is measured using a PerkinElmer Envision HTS Multilabel Reader using the AlphaScreen specifications from PerkinElmer. Each plate contains the following controls: • diluted DMSO+KRAS::SOS1 GDP mix+bead mix • diluted DMSO+KRAS::SOS1 GDP mix
IC50 values are calculated and analyzed using a 4 parametric logistic model.

Test [2] deals with KRASG12-dependent Ba/F3 cells (Homo sapiens, UniProt P01116, G12C, cells depend on it). Put plainly: Ba/F3 cell model proliferation assay (AlamarBlue, 72 h). Type of test: cell-based. The settings on record: Ba/F3 cells transduced with KRASG12C, read-out: IC50 Ba/F3 KRASG12C. On the procedure:
Ba/F3 Cell Model Generation and Proliferation Assay
Plasmids containing KRASG12 mutants were obtained from GeneScript. To generate KRASG12-dependent Ba/F3 models, Ba/F3 cells were transduced with retroviruses containing vectors that harbor KRASG12 isoforms. Platinum-E cells (Cell Biolabs) were used for retrovirus packaging. Retrovirus was added to Ba/F3 cells. To ensure infection, 4 μg/mL polybrene was added and cells were spinfected. […] Cells with an infection efficiency of 10% to 20% were further cultivated and puromycin selection with 1 μg/mL was initiated. As a control, parental Ba/F3 cells were used to show selection status. Selection was considered successful when parental Ba/F3 cells cultures died. To evaluate the transforming potential of KRASG12 mutations, the growth medium was no longer supplemented with IL-3. Ba/F3 cells harboring the empty vector were used as a control. Approximately ten days before conducting the experiments, puromycin was left out.
All treatments were performed in technical duplicates. The assay is run using a fully automated robotic system. Treated cells were incubated for 72 h at 37° C. with 5% CO2.
AlamarBlue™ (ThermoFisher), a viability stain, was added and fluorescence measured in the PerkinElmer Envision HTS Multilabel Reader.

The test system of test [3] is pERK (Thr202/Tyr204) in NCI-H358_Cas9_SOS2 (SOS2 knocked). Nature of the test: ERK phosphorylation assay 2 (AlphaLISA SureFire Ultra p-ERK1/2). The following applies: read-out: IC50 H358 pERK, ERK phosphorylation assay 2 (values marked with *).
Experimental: ERK Phosphorylation Assay
Low IC50 values in this assay setting are indicative of high potency of the compounds according to the invention.
GFP positive cells were collected and further expanded. These GFP-positive cell pools were single-cell diluted and SOS2 knock-out clones were identified via Western-blot and genomic DNA sequencing analysis.
Materials Used for the Assay:
(§1) AlphaLISA SureFire Ultra p-ERK1/2 (Thr202/Tyr204) Assay Kit (ALSU-PERK-A500)
Cells are seeded at 40,000 cells per well in /60 μL of RPMI with 10% FBS, non-essential amino acids, pyruvate and glutamax in Greiner TC 384 plates. The cells are incubated for 1 h at room temperature and then incubated overnight in an incubator at 37° C. and 5% CO2 in a humidified atmosphere. 60 nL compound solution (10 mM DMSO stock solution) is then added using a Labcyte Echo 550 device. After a 1 h incubation in the aforementioned incubator the medium is removed after centrifugation and the cells lysed by addition of 20 μL of 1.6-fold lysis buffer from the AlphaLISA SureFire Ultra pERK1/2 (Thr202/Tyr204) Assay Kit with added protease inhibitors, 100 nM trametinib+100 nM staurosporine. After 20 minutes of incubation at room temperature with shaking, 6 μL of each lysate sample is transferred to a 384-well Proxiplate and analyzed for pERK (Thr202/Tyr204) with the AlphaLISA SureFire Ultra pERK1/2 (Thr202/Tyr204) Assay Kit. 3 μL Acceptor Mix and 3 μL Donor Mix are added under subdued light and incubated for 2 h at room temperature in the dark, before the signal is measured on a PerkinElmer Envision HTS Multilabel Reader. The raw data were imported into and analyzed with the Boehringer Ingelheim proprietary software MegaLab (curve fitting based on the program PRISM, GraphPad Inc.).
In test [4] the test system is pERK (Thr202/Tyr204) in NCI-H358 (KRAS G12C mutation). Put plainly: ERK phosphorylation assay 1 (AlphaLISA SureFire Ultra p-ERK1/2). The following applies: Homo sapiens, NCI-H358, read-out: IC50 H358 pERK.
Experimental: ERK Phosphorylation Assay
Materials Used for the Assay:
as §1
The cells are incubated for 1 h at room temperature and then incubated overnight in an incubator at 37° C. and 5% CO2 in a humidified atmosphere. 60 nL compound solution (10 mM DMSO stock solution) is then added using a Labcyte Echo 550 device. […] After 20 minutes of incubation at room temperature with shaking, 6 μL of each lysate sample is transferred to a 384-well Proxiplate and analyzed for pERK (Thr202/Tyr204) with the AlphaLISA SureFire Ultra pERK1/2 (Thr202/Tyr204) Assay Kit. 3 μL Acceptor Mix and 3 μL Donor Mix are added under subdued light and incubated for 2 h at room temperature in the dark, before the signal is measured on a PerkinElmer Envision HTS Multilabel Reader. The raw data were imported into and analyzed with the Boehringer Ingelheim proprietary software MegaLab (curve fitting based on the program PRISM, GraphPad Inc.).

T1 sequence (P01116 1-169 isoform P01116-2 G12C/C51S/C80L/C118S): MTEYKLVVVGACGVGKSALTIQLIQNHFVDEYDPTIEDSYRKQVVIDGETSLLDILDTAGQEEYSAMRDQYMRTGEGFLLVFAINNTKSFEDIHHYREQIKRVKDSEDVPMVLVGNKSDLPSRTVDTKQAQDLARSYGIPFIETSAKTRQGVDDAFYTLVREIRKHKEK
Sequence of KRASG12-dependent Ba/F3 cells (P01116 whole entry G12C): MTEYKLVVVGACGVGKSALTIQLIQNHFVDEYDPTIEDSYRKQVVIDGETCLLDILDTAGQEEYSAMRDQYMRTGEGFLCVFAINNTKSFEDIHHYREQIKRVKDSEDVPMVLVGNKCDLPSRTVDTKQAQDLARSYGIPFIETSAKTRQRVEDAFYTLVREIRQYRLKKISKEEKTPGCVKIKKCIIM

Broadly, the IC50 is the concentration that gives 50% inhibition. In the case of `C=CC(=O)N1CC(Oc2cc(O[C@@H](C)[C@@H]3CCCN3C)nc(-c3noc([C@@]4(C)CCCc5sc(N)c(C#N)c54)n3)c2)C1` [Ia-3], the figures for the IC50 in test [1] and in test [3] were 1.2 nM and 0.5 nM, respectively. Moreover, the GI50 in test [2] worked out at 0.3 nM.
Regarding `C=CC(=O)N1CCCC(Oc2cc(-c3noc([C@@]4(C)CCCc5sc(N)c(C#N)c54)n3)nc(N3CCCN(C)C[C@@H]3C)c2)C1` (some centres unmarked) [Ia-6], the values for the IC50 in test [1] and in test [3] were 311 nM and 206 nM, respectively.
Regarding `C=CC(=O)N1CCN(c2cc(-c3noc(C4(C)CCCc5sc(N)c(C#N)c54)n3)nc(N3CCN(C)C[C@@H]3CC)c2)CC1` (some centres unmarked) [Ia-15], the concentration for half-maximal inhibition (IC50) in test [1] was determined as 53 nM; in test [4], 7.3 nM. Also, the GI50 in test [2] turned out to be 219 nM.
The matching figures for `C=CC(=O)N1CCN(c2cc(-c3noc(C4(C)CCCc5sc(N)c(C#N)c54)n3)nc(N3CCCN(CCCOC)C[C@@H]3C)c2)CC1` (some centres unmarked) [Ia-19]: 5 nM, 6.2 nM and 25.6 nM.
In the case of `C=CC(=O)N1CCN(c2cc(-c3noc(C4(C)CCCc5sc(N)c(C#N)c54)n3)nc(N3CCC4(CCN(C)CC4)CC3)c2)CC1` (centres unmarked) [Ia-34], the half-maximal inhibitory concentration (IC50) was 259 nM in test [1] and 282 nM in test [4]. Further, the GI50 in test [2] was 4380 nM.
The matching figures for `C=CC(=O)N1CCN(c2cc(-c3noc(C4(C)CCCc5sc(N)c(C#N)c54)n3)nc(N3CCC(N4CC[C@@H](F)C4)CC3)c2)CC1` (some centres unmarked) [Ia-39]: 10 nM, 6.2 nM and 87.6 nM.
Consider `C=CC(=O)N1CCN(c2cc(-c3noc([C@@]4(C)CCCc5sc(N)c(C#N)c54)n3)nc(O[C@H]3C4CC5CN(C)[C@@H]3[C@H]5C4)n2)CC1` (some centres unmarked) [Ia-51], for which the results for the IC50 in test [1] and in test [3] were 19 nM and 98.5 nM, respectively.
For `C=CC(=O)N1CCN(c2cc(-c3noc([C@@]4(C)CCCc5sc(N)c(C#N)c54)n3)nc(OC(C)CN3CCN(C)CC3)n2)CC1` (some centres unmarked) [Ia-66], the IC50 amounted to 9 nM in test [1] and 124 nM in test [3].
The matching figures for `C=CC(=O)N1CCN(c2cc(-c3noc([C@@]4(C)CCCc5sc(N)c(C#N)c54)n3)nc(OC3(CN4CCCC4)CC3)n2)CC1` [Ia-67]: 15 nM and 177 nM.
As for `C=CC(=O)N1CCN(c2cc(-c3noc([C@@]4(C)CCCc5sc(N)c(C#N)c54)n3)nc(O[C@H]3CCN(C)[C@H]3C)n2)CC1` [Ia-68], the IC50 is 27 nM in test [1] and 269 nM in test [3].
The matching figures for `C=CC(=O)N1CCN(c2cc(-c3noc([C@@]4(C)CCCc5sc(N)c(C#N)c54)n3)nc(OC3CC4(CCN(C)C4)C3)n2)CC1` (some centres unmarked) [Ia-69]: 23 nM and 298 nM.
In the same order, the values of `C=CC(=O)N1CCN(c2cc(-c3noc([C@@]4(C)CCCc5sc(N)c(C#N)c54)n3)nc(OC3CC4CCC(C3)N4C)n2)CC1` (some centres unmarked) [Ia-70] are 49 nM and 413 nM.
The matching figures for `C=CC(=O)N1CCN(c2cc(-c3noc([C@@]4(C)CCCc5sc(N)c(C#N)c54)n3)nc(N3CCOC[C@@H]3C)n2)CC1` [Ia-73]: 222 nM and 138 nM.
As to `C=CC(=O)N1CCN(c2cc(-c3noc([C@@]4(C)CCCc5sc(N)c(C#N)c54)n3)nc(N3CC[C@H](O)[C@@H]3C)n2)CC1` [Ia-75], the concentration for half-maximal inhibition (IC50) in test [1] was 180 nM; in test [3], 553 nM.
The matching figures for `C=CC(=O)N1CCN(c2cc(-c3noc([C@@]4(C)CCCc5sc(N)c(C#N)c54)n3)nc(N3CCC4(CC(O)C4)C3)n2)CC1` (some centres unmarked) [Ia-76]: 391 nM and 1000 nM.
In the case of `C=CC(=O)N1CCC2(CC1)CN(c1cc(-c3noc([C@@]4(C)CCCc5sc(N)c(C#N)c54)n3)nc(N3CCCN(CCCOC)C[C@@H]3C)n1)C2` [Ia-92], in test [1], the IC50 was found to be 16 nM. Also, the GI50 in test [2] turned out to be 178 nM.
In the same order, the values of `C=CC(=O)N1CC2(CCN(c3cc(-c4noc([C@@]5(C)CCCc6sc(N)c(C#N)c65)n4)nc(N4CCCN(C)C[C@@H]4C)n3)C2)C1` [Ia-94] are 77 nM and 2290 nM.
In the same order, the values of `C=CC(=O)N1CCC2(C1)CN(c1cc(-c3noc([C@@]4(C)CCCc5sc(N)c(C#N)c54)n3)cc(N3CCCN(C)C[C@@H]3C)n1)C2` [Ia-95] are 46 nM and 946 nM.
Consider `C=CC(=O)N1CC2CN(c3cc(-c4noc([C@@]5(C)CCCc6sc(N)c(C#N)c65)n4)nc(N4CCCN(C)C[C@@H]4C)n3)CC2C1` (some centres unmarked) [Ia-97], for which, in test [1], the IC50 stood at 43 nM. In test [2], the GI50 was found to be 967 nM.
In the same order, the values of `C=CC(=O)N1CCC2(CCN(c3cc(-c4noc([C@@]5(C)CCCc6sc(N)c(C#N)c65)n4)nc(N4CCCN(CCCOC)C[C@@H]4C)n3)CC2)C1` [Ia-98] are 59 nM and 662 nM.
The matching figures for `C=CC(=O)N1CC(N2CCN(c3cc(-c4noc([C@@]5(C)CCCc6sc(N)c(C#N)c65)n4)nc(N4CCCN(CCCOC)C[C@@H]4C)n3)CC2)C1` [Ia-99]: 45 nM and 1040 nM.
The matching figures for `C=CC(=O)N1CCN(C2CN(c3cc(-c4noc([C@@]5(C)CCCc6sc(N)c(C#N)c65)n4)nc(N4CCCN(C)C[C@@H]4C)n3)C2)CC1` [Ia-100]: 84 nM and 2200 nM.
Regarding `C=CC(=O)N1C[C@@H]2CN(c3cc(-c4noc([C@@]5(C)CCCc6sc(N)c(C#N)c65)n4)nc(N4CCCN(C)C[C@@H]4C)n3)[C@@H]2C1` [Ia-101], in test [1], the IC50 was 44 nM. Also, in test [2], the GI50 stood at 933 nM.
Regarding `C=CC(=O)N1CCC(Oc2cc(-c3noc(C4(C)CCCc5sc(N)c(C#N)c54)n3)nc(N3CCN(C)C[C@@H]3C)c2)CC1` (some centres unmarked) [Ia-114], the 50% inhibitory concentration (IC50) in test [1] was 11 nM; in test [4] it was 4.1 nM. Also, the GI50 in test [2] was 12.6 nM.
In the same order, the values of `C=CC(=O)N1CCN(c2cc(-c3noc([C@@]4(C)CCCc5sc(N)c(C#N)c54)n3)nc(N3CCN(C)CC3)c2)CC1` [Ia-116] are 31 nM, 6.4 nM and 208 nM.
The matching figures for `C=CC(=O)N1CCN(c2cc(O[C@@H]3CCN(C)C3)nc(-c3noc([C@@]4(C)CCCc5sc(N)c(C#N)c54)n3)c2)CC1` [Ia-127]: 60 nM, 22.1 nM and 1430 nM.
In the same order, the values of `[2H]C([2H])([2H])N1CCN(c2cc(N3CCN(C(=O)C=C)CC3)cc(-c3noc(C4(C)CCCc5sc(N)c(C#N)c54)n3)n2)CC1` (centres unmarked) [Ia-128] are 64 nM, 13.3 nM and 681 nM.
Consider `C=CC(=O)N1CCN(c2cc(-c3noc([C@@]4(C)CCCc5sc(N)c(C#N)c54)n3)nc(N3CCCN(CCOC)C[C@@H]3C)n2)CC1` [Ia-129], for which the half-inhibitory concentration (IC50) in test [1] was 6 nM; in test [4] it was 6.4 nM. For the same compound, the GI50 in test [2] was 22.5 nM.
As to `C=CC(=O)N1CCN(c2cc(-c3noc([C@@]4(C)CCCc5sc(N)c(C#N)c54)n3)nc(N3CCCN(CCOC)C[C@@H]3C)c2)CC1` [Ia-130], the IC50 is 7 nM in test [1] and 16.6 nM in test [4]. For the same compound, in test [2], the GI50 stood at 37.4 nM.
The matching figures for `C=CC(=O)N1CCN(c2cc(-c3noc([C@@]4(C)CCCc5sc(N)c(C#N)c54)n3)nc(N3CCCN(C)C[C@@H]3C)n2)CC1` [Ia-131]: 5 nM, 6.2 nM and 22.4 nM.
Consider `C=CC(=O)N1CCN(c2cc(-c3noc([C@@]4(C)CCCc5sc(N)c(C#N)c54)n3)nc(O[C@@H](CC)[C@@H]3CCCN3C)n2)CC1` [Ia-138], for which the figures for the 50% inhibitory concentration (IC50) in test [1] and in test [3] were 2 nM and 7.8 nM, respectively.
